Earlier results on nine compounds are cited in PubChem BioAssay AID1259410 (Chemical Carcinogenesis Research Information System (CCRIS), 2018).

The data set concerns rodent tumor promotion studies, tumor incidence. Put plainly: CCRIS tumor promotion studies. The source says:
The CCRIS database contains chemical records with carcinogenicity, mutagenicity, tumor promotion, and tumor inhibition test results. It was developed by the National Cancer Institute (NCI). Data are derived from studies cited in primary journals, current awareness tools, NCI reports, and other sources. Test results have been reviewed by experts in carcinogenesis and mutagenesis.
CCRIS provides historical information from the years 1985 - 2011. It is no longer updated.
This is an archive assay for CCRIS tumor promotion studies.

`CCC1(CC)C(=O)N=C(O)NC1=O`: the outcome (Carcinogen: CISPLATIN, 15663-27-1, Doses [Carcinogen]: 5 MG/KG BW GIVEN INTRAPERITONEALLY TO FEMALE RATS ON DAY 18 OF GESTATION, Doses [Promoter]: 0, 500 PPM IN DRINKING WATER BEGINNING AT 4 WK OF AGE AND CONTINUING FOR 75 WK (STUDY DURATION: 79 WK), Route [Carcinogen]: TRANSPLACENTAL, Route [Promoter]: ORAL, Species: RAT, Strain/Sex: F344/MALE) was “kidney: renal cell adenoma”; the outcome (Carcinogen: METHYL(ACETOXYMETHYL)NITROSAMINE, 56856-83-8, Doses [Carcinogen]: 0.05 MMOL/KG IN 5 ML STERILE PHOSPHATE BUFFER ONCE, Doses [Promoter]: 0, 500 PPM IN DRINKING WATER BEGINNING 2 WK POST CARCINOGEN DOSE AND CONTINUING FOR 78 WK (STUDY DURATION: 80 WK), Route [Carcinogen]: INTRAPERITONEAL, Route [Promoter]: ORAL, Species: RAT, Strain/Sex: F344/MALE) is given as “kidney: tumor”; the outcome (Carcinogen: N-BUTYL-N-(4-HYDROXYBUTYL)NITROSAMINE, 3817-11-6, Doses [Carcinogen]: 0.5% IN DRINKING WATER FOR 4 WK, Doses [Promoter]: 1000 PPM IN DIET BEGINNING 1 D POST CARCINOGEN DOSE FOR DURATION OF STUDY (STUDY DURATION: 36-52 WK), Route [Carcinogen]: ORAL, Route [Promoter]: ORAL, Species: RAT, Strain/Sex: F344/MALE) is recorded as “urinary bladder: papilloma or carcinoma”; the outcome (Carcinogen: N-NITROSODIETHYLAMINE, 55-18-5, Doses [Carcinogen]: 75 MG ONCE, Doses [Promoter]: 0, 500 PPM IN DRINKING WATER BEGINNING 2 WK POST CARCINOGEN DOSE AND CONTINUING FOR DURATION OF STUDY (STUDY DURATION: 5, Route [Carcinogen]: INTRAPERITONEAL, Route [Promoter]: ORAL, Species: RAT, Strain/Sex: F344/MALE) is “liver: hepatocellular adenoma”; the outcome (Carcinogen: N-NITROSODIETHYLAMINE, 55-18-5, Doses [Carcinogen]: 75 MG ONCE, Doses [Promoter]: 0, 500 PPM IN DRINKING WATER BEGINNING 2 WK POST CARCINOGEN DOSE AND CONTINUING FOR DURATION OF STUDY (STUDY DURATION: 7, Route [Carcinogen]: INTRAPERITONEAL, Route [Promoter]: ORAL, Species: RAT, Strain/Sex: F344/MALE) is recorded as “liver: hepatocellular carcinoma; kidney: renal tubular adenoma or adenocarcinoma”; the outcome (Carcinogen: N-[4-(5-NITRO-2-FURYL)-2-THIAZOLYL]FORMAMIDE, 24554-26-5, Doses [Carcinogen]: 0.2% IN DIET FOR 6 WK, Doses [Promoter]: 1000 PPM IN DIET BEGINNING 2 WK POST LAST CARCINOGEN DOSE AND CONTINUING FOR DURATION OF STUDY (STUDY DURATION: 52-68 WK, Route [Carcinogen]: ORAL, Route [Promoter]: ORAL, Species: RAT, Strain/Sex: F344/MALE) is listed as “urinary bladder: papilloma or carcinoma”. Also, the outcome is “kidney: adenoma or carcinoma” (Carcinogen: NONE (PROMOTION OF SPONTANEOUS TUMORS), Doses [Promoter]: 500 PPM IN DIET FOR 4.5 MONTHS (STUDY DURATION: 4.5 MONTHS), Route [Promoter]: ORAL, Species: RAT, Strain/Sex: EKER (TSC2 MUTANT)/MALE); “kidney: tumors” (Doses [Carcinogen]: 45 UMOL/KG BW GIVEN INTRAPERITONEALLY TO MOTHERS ON DAYS 16 AND 18 OF GESTATION, Doses [Promoter]: 0, 0.05% IN DRINKING WATER BEGINNING AT 4 WK OF AGE AND CONTINUING FOR 81 WK (STUDY DURATION: 85 WK), Route [Carcinogen]: TRANSPLACENTAL, Route [Promoter]: ORAL, Species: RAT, Strain/Sex: F344/MALE); “kidney: tumors” (Doses [Carcinogen]: 90 UMOL/KG BW GIVEN INTRAPERITONEALLY TO MOTHERS ON DAY 17 OF GESTATION, Doses [Promoter]: 0, 0.05% IN DRINKING WATER BEGINNING AT 4 WK OF AGE AND CONTINUING FOR 81 WK (STUDY DURATION: 85 WK), Route [Carcinogen]: TRANSPLACENTAL, Route [Promoter]: ORAL, Species: RAT, Strain/Sex: F344/MALE); “kidney: adenoma or carcinoma” (Doses [Carcinogen]: 90 UMOL/KG ONCE IN DISTILLED WATER, Doses [Promoter]: 0, 500 PPM IN DRINKING WATER BEGINNING 2 WK POST CARCINOGEN DOSE (STUDY DURATION: 96 WK), Route [Carcinogen]: INTRAPERITONEAL, Route [Promoter]: ORAL, Species: RAT, Strain/Sex: F344/MALE).
Take `O=C1C2(Cl)C3(Cl)C4(Cl)C(Cl)(Cl)C5(Cl)C3(Cl)C1(Cl)C5(Cl)C24Cl` (stereo not given): the outcome (Carcinogen: DIETHYLNITROSAMINE, 55-18-5, Doses [Carcinogen]: 20 MG/KG IN WATER ONCE, Doses [Promoter]: 0, 9 MG/KG 2/WK FOR 27 WK BEGINNING 10 D POST CARCINOGEN DOSE (STUDY DURATION: 30 WK), Route [Carcinogen]: GAVAGE, Route [Promoter]: SUBCUTANEOUS, Species: RAT, Strain/Sex: SPRAGUE-DAWLEY/FEMALE) is listed as “liver: hepatocellular carcinoma”.
With `C[C@H](N)[C@H](O)c1cccc(O)c1`, the outcome (Carcinogen: N-METHYL-N'-NITRO-N-NITROSOGUANADINE, 70-25-7, Doses [Carcinogen]: 25 UG/ML IN DRINKING WATER FOR 20 WK, Doses [Promoter]: 0, 5 MG/KG BW IN OLIVE OIL 1/2 D BEGINNING POST CARCINOGEN TREATMENT (STUDY DURATION: 52 WK), Route [Carcinogen]: ORAL, Route [Promoter]: SUBCUTANEOUS, Species: RAT, Strain/Sex: WISTAR/MALE) is reported as “stomach: adenocarcinoma”.
As to `CCCC1(CCCCCCCCCCCC(=O)OC2C(C)C3(O)C(C=C(CO)CC4(O)C(=O)C(C)=CC43)C3C(C)(C)C23OC(C)=O)OCC(C)(C)N1[O]` (stereo not given), the outcome (Carcinogen: 7,12-DIMETHYLBENZ[A]ANTHRACENE, 57-97-6, Doses [Carcinogen]: 100 NMOL ONCE, Doses [Promoter]: 0, 20 NMOL 2/WK FOR 24 WK BEGINNING 1 WK POST CARCINOGEN DOSE (STUDY DURATION: 25 WK), Route [Carcinogen]: DERMAL, Route [Promoter]: DERMAL, Species: MOUSE, Strain/Sex: NMRI/FEMALE) is on record as “skin: tumor”.
On to `NN=C(N)N`, for which the outcome by setting is: (Carcinogen: AZOXYMETHANE, Doses [Carcinogen]: 2.5 MG/KG IN DISTILLED WATER 1/WK FOR 10 WK, Doses [Promoter]: 100 MG/KG IN 0.9%, NACL, 3/WK FOR 24 WK ADMINISTERED SIMULTANEOUSLY AND POST CARCINOGEN DOSES (STUDY DURATION: 52 WK), Route [Carcinogen]: SUBCUTANEOUS, Route [Promoter]: INTRAGASTRIC, Species: RAT, Strain/Sex: F344/MALE) “colon: tumor”; (Carcinogen: N-METHYL-N'-NITRO-N-NITROSOGUANIDINE, 70-25-7, Doses [Carcinogen]: 25 UG/ML IN DRINKING WATER FOR 25 WK, Doses [Promoter]: 0, 25 MG/KG BW 1/2 D FOR 25 WK BEGINNING POST CARCINOGEN TREATMENT (STUDY DURATION: 52 WK), Route [Carcinogen]: ORAL, Route [Promoter]: SUBCUTANEOUS, Species: RAT, Strain/Sex: WISTAR/MALE) “stomach: adenocarcinoma”.
`OC[C@H]1O[C@@H]2O[C@H]3[C@H](O)[C@@H](O)[C@@H](O[C@H]4[C@H](O)[C@@H](O)[C@@H](O[C@H]5[C@H](O)[C@@H](O)[C@@H](O[C@H]6[C@H](O)[C@@H](O)[C@@H](O[C@H]7[C@H](O)[C@@H](O)[C@@H](O[C@H]8[C@H](O)[C@@H](O)[C@@H](O[C@H]1[C@H](O)[C@H]2O)O[C@@H]8CO)O[C@@H]7CO)O[C@@H]6CO)O[C@@H]5CO)O[C@@H]4CO)O[C@@H]3CO`: for the setting “Carcinogen: N-ETHYL-N-(2-HYDROXYETHYL)NITROSAMINE, Doses [Carcinogen]: 500, 1000 PPM IN DIET FOR TWO WK, Doses [Promoter]: 450 MG/KG 1/D FOR 7 D AFTER INITIATION FOR 2 WK, Route [Carcinogen]: ORAL, Route [Promoter]: SUBCUTANEOUS, Species: RAT, Strain/Sex: WISTAR/MALE”, the outcome is “kidney: tubular cell tumor”.
Regarding `CN(CCCC(=O)O)N=O`, the outcome (Carcinogen: 1-NITROSO-1,3-DIMETHYLUREA, 13256-32-1, Doses [Carcinogen]: 10 MG/ML IN ETHYL ACETATE/CORN OIL (1:1) 1/WK FOR 2 WK, Doses [Promoter]: 0, 100 MG/L IN DRINKING WATER 5 D/WK FOR 40 WK BEGINNING 1/WK POST CARCINOGEN TREATMENT (STUDY DURATION: 43 WK), Route [Carcinogen]: GAVAGE, Route [Promoter]: ORAL, Species: RAT, Strain/Sex: F344/MALE) is “urinary bladder: transitional cell carcinoma” and the outcome (Carcinogen: NITROSOBIS(2-OXOPROPYL)AMINE, 60599-38-4, Doses [Carcinogen]: 12 MG/ML IN ETHYLACETATE/CORN OIL (1:1) 2/WK FOR 2 WK, Doses [Promoter]: 0, 100 MG/L IN DRINKING WATER 5 D/WK FOR 40 WK BEGINNING 1 WK POST CARCINOGEN TREATMENT (STUDY DURATION: 43 WK), Route [Carcinogen]: GAVAGE, Route [Promoter]: ORAL, Species: RAT, Strain/Sex: F344/MALE) is given as “colon: adenocarcinoma; urinary bladder: transitional cell carcinoma”.
Take `CC(=O)O`: under “Carcinogen: LEAD SUBACETATE, 1335-32-6, Doses [Carcinogen]: 1% IN DIET FOR 18 MO, Doses [Promoter]: 0, 0.3, 1, 3, 6% IN DIET FOR 18 MO (STUDY DURATION: 79 WK), Doses [Promoter]: 0, 0.3, 1, 3, 6% IN DIET FOR 18 MO (STUDY DURATION: 79 WK), Route [Carcinogen]: ORAL, Route [Promoter]: ORAL, Species: RAT, Strain/Sex: SPRAGUE-DAWLEY/MALE”, the outcome is reported as “kidney: tumor”.
`Cc1c(C)c2c(c(C)c1O)CCC(C)(CCCC(C)CCCC(C)CCCC(C)C)O2` (stereo not given): the outcome (Carcinogen: 7,12-DIMETHYLBENZ[A]ANTHRACENE, 57-97-6, Doses [Carcinogen]: 10 NMOL IN 0.2 ML ACETONE ONCE, Doses [Promoter]: 0, 80 UMOL IN 0.2 ML ACETONE 2/WK BEGINNING 1 WK POST CARCINOGEN DOSE AND CONTINUING FOR 19 WK (STUDY DURATION: 20 WK), Route [Carcinogen]: DERMAL, Route [Promoter]: DERMAL, Species: MOUSE, Strain/Sex: SENCAR/FEMALE) is reported as “skin: papilloma”.
